Experimental data as given in patent US8895032B2, “Dendritic nano-antioxidants” (Central Michigan University, priority 2009, dated 2014).
Where “and” joins values, the source holds several entries; their conditions need not be identical. Equal values may be shown once.

Assays:
[1] = beta-carotene-linoleate assay; assay type: biochemical; conditions: for % A470 nm: 12 μM, after 180 min incubation at 50° C.; for protection of linoleic acid from oxidation: 50° C., 180 min, 470 nm
Description: The ability of the dendritic antioxidants 1, 2, and 3 to protect linoleic acid against free radical damage was examined by the beta-carotene-linoleate model (Jayaprakasha, G. K., et al. Food Chem. 2001, 73, 285, incorporated herein by reference in its entirety). In the absence of an antioxidant, hydroperoxides formed from linoleic acid oxidation bleach the highly unsaturated beta-carotene by a free-radical-mediated phenomenon. The bleaching of the reddish-orange color of beta-carotene was monitored at 470 nm in the presence of various concentrations of antioxidant. The % absorbance (corrected for control without antioxidant) was determined at each antioxidant concentration after incubation at 50° C. for 180 min. The % A470 nm values were determined as follows: % A470 nm=[(At(180 min)/At(0 min))×100]−[(Ac(180 min)/Ac(0 min))×100], wherein At(180 min)=absorbance at 470 nm of antioxidant sample incubated at 50° C. for 180 min, At(0 min)=absorbance at 470 nm of antioxidant sample incubated at 50° C. for 0 min, Ac(180 min)=absorbance at 470 nm of control sample (without antioxidant) incubated at 50° C. for 180 min, and Ac(0 min)=absorbance at 470 nm of control sample (without antioxidant) incubated at 50° C. for 0 min. […] In FIG. 24, protection of linoleic acid from oxidation by various antioxidants is shown for compound 1 (□), compounds 2 and 3 (•), quercetin (x), and Trolox (Δ).

DPPH radical assay = test: DPPH radical assay
Method: The DPPH assay was one of three electron transfer (ET) assays used to determine the antioxidant potential of compound 1 (described in Example 6) in comparison to its monomeric counterpart (syringaldehyde) as well as popular antioxidants. In an ET assay, an antioxidant donates electron(s) to a molecular probe, thus reducing it. From the assay, thermodynamic conversion of antioxidant to antioxidant radical (oxidation) is measured during a fixed time period.
The reduction of DPPH radical was determined for ascorbic acid, Trolox, syringaldehyde, and the compound 1 described in Example 6 as previously reported (Brand-Williams, et al. Lebensm.-Wiss U.-Technol. 1995, 28, 25-30, incorporated herein by reference in its entirety). In the DPPH assay, DPPH• radical was reduced by the antioxidant in methanol (Brand-Williams, et al. Lebensm.-Wiss U.-Technol. 1995, 28, 25-30, incorporated herein by reference in its entirety). […] The DPPH reagent was made in methanol. Antioxidant sample (10 μL) was added to 1.0 mL of reagent and the absorbance was monitored at 515 nm until a plateau was reached. Antioxidant concentrations were 50 μM syringaldehyde, 12.5 μM Trolox and ascorbic acid, and 5 μM compound 1. All samples were made in methanol and run in triplicates at room temperature.
The DPPH• scavenging capacity of each antioxidant was evaluated from the plot of the percentage DPPH• remaining when the kinetics reached a steady state as a function of the molar ratios of antioxidant to DPPH•. […] Using the curve, EC50 (the amount of antioxidant necessary to decrease the initial DPPH• concentration by 50%), antiradical power (1/EC50, ability to reduce the DPPH•), reaction stoichiometry (EC50×2, the concentration of antioxidant required to reduce 100% of DPPH• radical), and the number of reduced DPPH• per antioxidant molecule (1/stoichiometry) for each antioxidant were calculated as previously described (Brand-Williams, et al. Lebensm.-Wiss U.-Technol. 1995, 28, 25-30, incorporated herein by reference in its entirety) and are depicted in Table 1.
Antioxidant capacity of the compounds was assessed by the DPPH assay (Brand-Williams, et al. Lebensm. Wiss. Technol. 1995, 28, 25, incorporated herein by reference in its entirety). […] In FIG. 22, control with methanol is (X, dashed); compound 1 is (□), compound 2 is (•), compound 3 is (◯), and Trolox (Δ). All antioxidant concentrations were 5 μM.
The free-radical scavenging ability of the antioxidants was evaluated by the DPPH assay, as described above in Example 7.

plasmid DNA pBR 322 = test: Protection of plasmid DNA from AAPH damage (agarose electrophoresis); assay type: biochemical; conditions: 10 mM AAPH, 37° C., 4 h
Method: The effectiveness of the three compounds to protect DNA from AAPH damage was also determined. The plasmid DNA pBR 322 was incubated with AAPH (final concentration 10 mM) at 37° C. for 4 h with or without antioxidants (final concentrations, 0.35-45 μM), after which the samples were subjected to agarose electrophoresis (Sakihama, Y., et al. Toxicology 2002, 177, 67, incorporated herein by reference in its entirety). […] In the absence of AAPH, pBR 322 was mostly in its supercoiled (S) form (small amount of open circular, O, form was also visible, lane 1 FIG. 25). After reaction with AAPH, the DNA was transformed almost entirely into its open circular form (lane 2, FIG. 25). […] No protection was obtained for both compound 1 and quercetin below 5 μM (lanes 7-10, FIG. 25). […] Compound 3 as well as Trolox were ineffective at all concentrations used in the experiment (0.35-45 μM).
Protection of DNA from free radical damage by the antioxidant dendrimers (compounds 4, 5, and 1) was also evaluated. Plasmid DNA (pBR 322) samples, were incubated with AAPH (final concentration 10 mM) at 37° C. for 4 h with antioxidants (final concentrations, 0.35-45 μM) and subjected to agarose electrophoresis. […] The native DNA was mostly in its supercoiled (S) form (small amount of open circular, O, form was also visible, lane 1, FIG. 31). In the presence of AAPH, the DNA was transformed almost entirely into its O form (lane 2, FIG. 31). […] Negligible DNA protection was afforded by all three dendrimers at ≦2.5 μM (lanes 7-10, FIG. 31). Under similar conditions, Trolox as well as the starting materials for dendrimer synthesis were ineffective at all concentrations.

Human LDL = test: Protection of LDL from AAPH oxidation (agarose gel electrophoresis); assay type: biochemical; conditions: 10 mM AAPH, 18 h, 37° C.
Description: The antioxidant activity of compounds 1, 2, and 3 towards biomolecules was examined by studying their ability to protect LDL, fatty acid, and DNA from free radicals. For LDL, AAPH was used to induce free radical damage. AAPH was used instead of copper (Cu^2) ion for LDL oxidation so that the free radical scavenging activity of the antioxidants could be measured without any pro-oxidant interference caused by metal ions (Salah, N. et al. Arch. Biochem. Biophys. 1995, 322, 339, incorporated herein by reference in its entirety). All solutions were made in ultra-pure water.
Protection of LDL from AAPH free radicals by the antioxidant decreased the anodic shift in a dose-dependent manner (FIG. 23). […] The increased hydrophobicity of compound 3 may be partly responsible for its improved LDL protection over compound 2.
The antioxidant activity of the antioxidants towards biomolecules was examined by studying their ability to protect LDL, lysozyme, and DNA from free radicals. For LDL, AAPH was used to induce free radical damage. AAPH was used instead of Cu^2+ for LDL oxidation so that the free radical scavenging activity of the antioxidants could be measured without any pro-oxidant interference caused by metal ions. The oxidation of human low-density lipoprotein was used as a model for evaluating the ability of the G1 dendrimers as chain-breaking antioxidants for lipid. Oxidation of LDL leads to changes in both the lipid and the protein moieties of the lipoprotein particle. Lipid peroxidation in LDL has been evaluated by a variety of methods. Due to the complexity of events that occur in lipoprotein oxidation, the electrophoretic migration pattern of oxidized LDL is one of the best methods to evaluate the extent of lipoprotein oxidation. LDL was incubated with 20 mM AAPH and increasing concentrations of the G1 dendrimers (0-37 μM in PBS) for 21 h at 37° C. The mixture was then subjected to agarose gel electrophoresis using the Ciba Corning Clinical Electrophoresis System. The agarose gel was stained with Fat Red 7B. In FIG. 30A (top), lane 1 is native LDL, and lanes 2-8 are AAPH-oxidized LDL with 0, 37, 18.5, 9, 4.5, 2 and 1 μM compound 4, respectively. In FIG. 30B (bottom), lane 1 is native LDL, and lanes 2-8 are AAPH-oxidized LDL with 0, 37, 18.5, 9, 4.5, 2 and 1 μM quercetin or Trolox, respectively.

[2] = FRAP assay (reduction of Fe(III) to Fe(II)); assay type: biochemical; set-up: Slope of ΔA593 versus concentration: unit not given here; conditions: for Slope of ΔA593 versus concentration: 37° C.
Method: The FRAP assay was performed as previously described (Pulido, et al. J. Agric. Food Chem. 2000, 48, 3396-3402, incorporated herein by reference in its entirety). In the FRAP assay, ferric was reduced by the antioxidant to ferrous via electron transfer (Benzie et al., Anal. Biochem. 1996, 239, 70-76, incorporated herein by reference in its entirety). This assay measured the redox potential of an antioxidant which is used as an estimate of antioxidant efficiency and expressed as a FRAP value. […] The compound 1 as well as the other antioxidants was dissolved in methanol. […] Reaction kinetics of the compound 1 and other antioxidants were obtained by plotting the change in slopes at various times and are shown in FIG. 18. […] This time-dependent increase in absorbance was previously reported (Pulido, et al. J. Agric. Food Chem. 2000, 48, 3396-3402, incorporated herein by reference in its entirety) and was especially significant with polyphenolic compounds. […] However, the FRAP value increased with time, reaching 2.5 in 60 min. […] J. Agric. Food Chem. 2000, 48, 3396-3402, incorporated herein by reference in its entirety). […] EC1 values, and therefore ferric reducing ability, were lower at longer reaction times as expected from the kinetic behavior of the antioxidants (Pulido, et al. J. Agric. Food Chem. 2000, 48, 3396-3402, incorporated herein by reference in its entirety).

[3] = ABTS radical cation decolorization assay; assay type: biochemical
Description: We have tested AO activity of G1 (13) using ABTS as a radical source using a previously reported spectroscopic assay. The AO activity of the G1 (13) was compared to those of syringaldehyde, gallic acid, and vitamin C. If the phenolic OH group is the radical scavenging site, the expected AO activity of the G1 (13) should be 4 fold higher than that of syringaldehyde and 1.3 fold higher than that of gallic acid (which has three phenolic OH groups).
ABTS radical cation decolorization assay was used as previously described (Ozgen, et al. J. Agric. Food Chem. 2006, 54, 1151-1157, incorporated herein by reference in its entirety). Like the DPPH assay, this was also a decolorization assay and measured absorbance decrease at 734 nm as the ABTS radical (ABTS•+) is quenched by the antioxidant. The solvent used for the assay was ethanol. ABTS reagent was added to 1.0 mL solvent in a cuvet to bring the absorbance to 0.7. A 10 μL sample of antioxidant was then added, mixed, and the absorbance monitored at 734 nm for 6 min. Antioxidant concentrations were 14.4 μM Trolox, 11.4 μM ascorbic acid, 15.4 μM syringaldehyde, and 3 μM compound 1. The % decrease in absorbance at 6 min was plotted against antioxidant concentrations. The gradient of the line obtained by linear regression for a given antioxidant was divided by that obtained for Trolox to yield Trolox equivalent antioxidant (TEAC) values. All samples were made in ethanol and run in triplicates and at room temperature.

In the case of `NCc1ccc(CN)cc1` [4-aminomethylbenzylamine], the “% A470 nm” value [1] is reported as 16% and the “quenching of DDPH•” value (DPPH radical assay; 40 μM final concentration in cuvet) is reported as 6%.

For `COc1cc(CN(Cc2ccc(CN(Cc3cc(I)c(O)c(OC)c3)Cc3cc(I)c(O)c(OC)c3)cc2)Cc2cc(I)c(O)c(OC)c2)cc(I)c1O` [Compound 3], the “DNA protection at all concentrations used” value (plasmid DNA pBR 322; 0.35-45 μM) was “ineffective”, the “protection of linoleic acid from oxidation” value [1] was “about twice weaker than compound 1” and the “protection of LDL from AAPH free radicals (anodic migration)” value (Human LDL) was “better LDL protection than compound 2”.

In the case of `COc1cc(CN(Cc2ccc(CN(Cc3ccc(O)c(OC)c3)Cc3ccc(O)c(OC)c3)cc2)Cc2ccc(O)c(OC)c2)ccc1O` [Compound 2], the “concentration at which some DNA protection was observed” value (plasmid DNA pBR 322) is reported as ≥ 45 µM and the “protection of linoleic acid from oxidation” value [1] is reported as “about twice weaker than compound 1”.

With `COc1cc(C=O)cc(OC)c1O` [Syringaldehyde] the “% A470 nm” value [1] was 12%, the “Antioxidant Capacity Relative to Trolox, FRAP 5 min” value ([2]; 5 min) was 2.3 and the “EC1 (concentration with ferric-TPTZ reducing ability equivalent to 1 mM FeSO4.7H2O)” value ([2]; 5 min) was 194 µM. The “FRAP value relative to Fe(II)” value ([2]; 5 min) was 5.1, the “FRAP value relative to Fe(II)” value ([2]; 15 min) was 6.7 and the “FRAP value relative to Fe(II)” value ([2]; 30 min) was 8.4. For the same compound, the “Antioxidant Capacity Relative to Trolox, FRAP 60 min” value ([2]; 60 min) was 4 and 4.2, the “EC1 (concentration with ferric-TPTZ reducing ability equivalent to 1 mM FeSO4.7H2O)” value ([2]; 60 min) was 108 µM and the “FRAP value relative to Fe(II)” value ([2]; 60 min) was 9.2. The “Slope of ΔA593 versus concentration” value ([2]; Reaction time 5 min) was 0.062, the “Slope of ΔA593 versus concentration” value ([2]; Reaction time 15 min) was 0.081 and the “Slope of ΔA593 versus concentration” value ([2]; Reaction time 30 min) was 0.101. For the same compound, the “Slope of ΔA593 versus concentration” value ([2]; Reaction time 60 min) was 0.111, the “# of DDPH• reduced per antioxidant molecule (1/stoichiometry)” value (DPPH radical assay) was 0.33 and the “Antioxidant Capacity Relative to Trolox, DPPH” value (DPPH radical assay) was 0.18. For the same compound, the “DPPH assay, times weaker than Trolox” value (DPPH radical assay) was 5.6 times, the “DPPH• remaining in one minute” value (DPPH radical assay; 50 μM syringaldehyde) was 96% and the “time to reach plateau / steady state with DPPH•” value (DPPH radical assay; 50 μM syringaldehyde, 12.5 μM Trolox and ascorbic acid, 5 μM compound 1, methanol, room temperature, 515 nm) was “approximately 45 min”. For the same compound, the “Antioxidant Capacity Relative to Trolox, ABTS” value [3] was 0.98, the IC50 ([3]; final concentration in the cuvet, read-out: concentration at which 50% inhibition of ABTS•+ was observed) was ~11 µM and the “Slope of % decrease in absorbance at 6 min versus antioxidant concentration” value ([3]; linear regression, concentration in μM) was 3.9. For the same compound, the TEAC ([3]; slope divided by that of Trolox, % decrease in A734 at 6 min, ethanol) was 0.98.
